Results: PubChem BioAssay AID1745844 (Carcinogenic Potency Database (CPDB), 2022)
“And” between values parts separate entries of the source, which are not always exact repeats. Equal values may be shown once. The source made the active and inactive calls. The rule behind the calls is not given here.

Test system: rodent lifetime carcinogenesis bioassay, tumor incidence TD50
Experiment: carcinogenic potency in animals, long-term in vivo studies, CPDB compilation (AID 1745844)
Details: rat

With ClCCl the carcinogen call (strain Fischer 344, females, in drinking water, site: liver, lesion: hepatocellular carcinoma, dosed 78 weeks, study length 104 weeks) was “negative (inactive)”, the TD50 (strain Fischer 344, females, in drinking water, site: liver, lesion: hepatocellular carcinoma, dosed 104 weeks, study length 104 weeks) was 3630 mg/kg/day (inactive) and the carcinogen call (strain Fischer 344, females, in drinking water, site: liver, lesion: neoplastic nodule, dosed 78 weeks, study length 78 weeks) was “negative (inactive)”. For the same compound, the TD50 (strain Fischer 344, females, in drinking water, site: liver, lesion: neoplastic nodule, dosed 78 weeks, study length 104 weeks) was 1540 mg/kg/day (inactive), the TD50 (strain Fischer 344, females, in drinking water, site: liver, lesion: neoplastic nodule, dosed 104 weeks, study length 104 weeks) was 2340 mg/kg/day (inactive) and the TD50 (strain Fischer 344, females, in drinking water, site: liver, lesion: several types, types named in the paper, dosed 78 weeks, study length 104 weeks) was 1540 mg/kg/day (inactive). The TD50 (strain Fischer 344, females, in drinking water, site: liver, lesion: several types, types named in the paper, dosed 104 weeks, study length 104 weeks) was 1430 mg/kg/day (inactive), the TD50 (strain Fischer 344, females, inhaled, site: all sites, lesion: mononuclear-cell leukemia, dosed 102 weeks, study length 104 weeks) was 1280 mg/kg/day and the TD50 (strain Fischer 344, females, inhaled, site: any site (literature study), lesion: several types, types named in the paper, dosed 102 weeks, study length 104 weeks) was 501 mg/kg/day. For the same compound, the TD50 (strain Fischer 344, females, inhaled, site: liver, lesion: hepatocellular adenoma + hepatocellular carcinoma + neoplastic nodule, dosed 102 weeks, study length 104 weeks) was 4270 mg/kg/day, the TD50 (strain Fischer 344, females, inhaled, site: liver, lesion: hepatocellular carcinoma + neoplastic nodule, dosed 102 weeks, study length 104 weeks) was 4270 mg/kg/day and the TD50 (strain Fischer 344, females, inhaled, site: mammary gland, lesion: adenocarcinoma, NOS + adenoma, NOS + fibroadenoma + mixed tumor, malignant, dosed 102 weeks, study length 104 weeks) was 670 mg/kg/day. It also gave a TD50 (strain Fischer 344, females, inhaled, site: mammary gland, lesion: adenocarcinoma, NOS + adenoma, NOS + fibroadenoma, dosed 102 weeks, study length 104 weeks) of 630 mg/kg/day, a TD50 (strain Fischer 344, females, inhaled, site: mammary gland, lesion: adenoma, NOS + fibroadenoma, dosed 102 weeks, study length 104 weeks) of 598 mg/kg/day and a TD50 (strain Fischer 344, females, inhaled, site: mammary gland, lesion: fibroadenoma, dosed 102 weeks, study length 104 weeks) of 632 mg/kg/day. For the same compound, the carcinogen call (strain Fischer 344, males, in drinking water, site: liver, lesion: hepatocellular carcinoma, dosed 78 weeks, study length 104 weeks) was “negative (inactive)”, the carcinogen call (strain Fischer 344, males, in drinking water, site: liver, lesion: hepatocellular carcinoma, dosed 104 weeks, study length 104 weeks) was “negative (inactive)” and the carcinogen call (strain Fischer 344, males, in drinking water, site: liver, lesion: neoplastic nodule, dosed 78 weeks, study length 78 weeks) was “negative (inactive)”. For the same compound, the TD50 (strain Fischer 344, males, in drinking water, site: liver, lesion: neoplastic nodule, dosed 78 weeks, study length 104 weeks) was 1610 mg/kg/day (inactive), the carcinogen call (strain Fischer 344, males, in drinking water, site: liver, lesion: neoplastic nodule, dosed 104 weeks, study length 104 weeks) was “negative (inactive)” and the TD50 (strain Fischer 344, males, in drinking water, site: liver, lesion: several types, types named in the paper, dosed 78 weeks, study length 104 weeks) was 3660 mg/kg/day (inactive). For the same compound, the carcinogen call (strain Fischer 344, males, in drinking water, site: liver, lesion: several types, types named in the paper, dosed 104 weeks, study length 104 weeks) was “negative (inactive)”, the TD50 (strain Fischer 344, males, inhaled, site: any site (literature study), lesion: several types, types named in the paper, dosed 102 weeks, study length 104 weeks) was 539 mg/kg/day and the TD50 (strain Fischer 344, males, inhaled, site: mammary gland + subcutaneous tissue, lesion: adenoma, NOS + fibroadenoma + fibroma, dosed 102 weeks, study length 104 weeks) was 917 mg/kg/day. The TD50 (strain Fischer 344, males, inhaled, site: mammary gland, lesion: adenoma, NOS + fibroadenoma, dosed 102 weeks, study length 104 weeks) was 1640 mg/kg/day, the TD50 (strain Fischer 344, males, inhaled, site: mammary gland, lesion: fibroadenoma, dosed 102 weeks, study length 104 weeks) was 1770 mg/kg/day and the TD50 (strain Fischer 344, males, inhaled, site: multiple organs + tunica vaginalis, lesion: mesothelioma, NOS + mesothelioma, malignant, dosed 102 weeks, study length 104 weeks) was 1440 mg/kg/day. The TD50 (strain Fischer 344, males, inhaled, site: subcutaneous tissue, lesion: fibroma + sarcoma, NOS, dosed 102 weeks, study length 104 weeks) was 1990 mg/kg/day, the TD50 (strain Fischer 344, males, inhaled, site: subcutaneous tissue, lesion: fibroma, dosed 102 weeks, study length 104 weeks) was 2180 mg/kg/day and the TD50 (strain Fischer 344, males, inhaled, site: tunica vaginalis, lesion: mesothelioma, NOS + mesothelioma, malignant, dosed 102 weeks, study length 104 weeks) was 1640 mg/kg/day. For the same compound, the TD50 (strain Fischer 344, males, inhaled, site: tunica vaginalis, lesion: mesothelioma, malignant, dosed 102 weeks, study length 104 weeks) was 4310 mg/kg/day, the TD50 (strain Sprague-Dawley Spartan, females, inhaled, site: liver, lesion: Kupffer-cell sarcoma, dosed 104 weeks, study length 104 weeks) was 9340 mg/kg/day (inactive) and the carcinogen call (strain Sprague-Dawley Spartan, females, inhaled, site: liver, lesion: hepatocellular carcinoma, dosed 52 weeks, study length 104 weeks) was “negative (inactive)”. For the same compound, the TD50 (strain Sprague-Dawley Spartan, females, inhaled, site: liver, lesion: hepatocellular carcinoma, dosed 104 weeks, study length 104 weeks) was 9520 mg/kg/day (inactive), the carcinogen call (strain Sprague-Dawley Spartan, females, inhaled, site: liver, lesion: neoplastic nodule, dosed 52 weeks, study length 104 weeks) was “negative (inactive)” and the carcinogen call (strain Sprague-Dawley Spartan, females, inhaled, site: liver, lesion: neoplastic nodule, dosed 104 weeks, study length 104 weeks) was “negative (inactive)”. For the same compound, the TD50 (strain Sprague-Dawley Spartan, females, inhaled, site: mammary gland, lesion: adenocarcinoma, dosed 52 weeks, study length 104 weeks) was 1140 mg/kg/day (inactive), the carcinogen call (strain Sprague-Dawley Spartan, females, inhaled, site: mammary gland, lesion: adenocarcinoma, dosed 104 weeks, study length 104 weeks) was “negative (inactive)” and the TD50 (strain Sprague-Dawley Spartan, females, inhaled, site: mammary gland, lesion: benign tumor, dosed 52 weeks, study length 104 weeks) was 38.1 mg/kg/day. The TD50 (strain Sprague-Dawley Spartan, females, inhaled, site: mammary gland, lesion: benign tumor, dosed 104 weeks, study length 104 weeks) was 4430 mg/kg/day and 1550 mg/kg/day, the TD50 (strain Sprague-Dawley Spartan, females, inhaled, site: mammary gland, lesion: fibroadenoma, dosed 52 weeks, study length 104 weeks) was 37.7 mg/kg/day and the TD50 (strain Sprague-Dawley Spartan, females, inhaled, site: mammary gland, lesion: fibroadenoma, dosed 104 weeks, study length 104 weeks) was 631 mg/kg/day. The carcinogen call (strain Sprague-Dawley Spartan, males, inhaled, site: liver, lesion: one or several types, types not named, dosed 86 weeks, study length 86 weeks) was “negative (inactive)”, the TD50 (strain Sprague-Dawley Spartan, males, inhaled, site: mammary gland, lesion: benign tumor, dosed 104 weeks, study length 104 weeks) was 5080 mg/kg/day and the TD50 (strain Sprague-Dawley Spartan, males, inhaled, site: salivary gland, lesion: several types, types named in the paper, dosed 104 weeks, study length 104 weeks) was 4260 mg/kg/day. For the same compound, the TD50 (strain Sprague-Dawley, females, by gavage, site: any site (literature study), lesion: malignant tumor, dosed 64 weeks, study length 104 weeks) was 1740 mg/kg/day, the TD50 (strain Sprague-Dawley, females, by gavage, site: mammary tissue, wider than the gland, lesion: malignant tumor, dosed 64 weeks, study length 104 weeks) was 1130 mg/kg/day and the TD50 (strain Sprague-Dawley, females, by gavage, site: mammary tissue, wider than the gland, lesion: several types, types named in the paper, dosed 64 weeks, study length 104 weeks) was 1030 mg/kg/day. For the same compound, the TD50 (strain Sprague-Dawley, females, inhaled, site: any site (literature study), lesion: malignant tumor, dosed 104 weeks, study length 104 weeks) was 477 mg/kg/day, the TD50 (strain Sprague-Dawley, females, inhaled, site: any site (literature study), lesion: several types, types named in the paper, dosed 104 weeks, study length 104 weeks) was 32.1 mg/kg/day and the TD50 (strain Sprague-Dawley, females, inhaled, site: mammary tissue, wider than the gland, lesion: several types, types named in the paper, dosed 104 weeks, study length 104 weeks) was 37.8 mg/kg/day. The TD50 (strain Sprague-Dawley, males, by gavage, site: any site (literature study), lesion: malignant tumor, dosed 64 weeks, study length 104 weeks) was 935 mg/kg/day.
